ChEMBL document CHEMBL5360627, “Total Synthesis of Kuwanons A and B and Discovery of Their Antibacterial Mechanism” (2023)
In brackets after ≈: the same amount, converted by molar mass. Activity calls are given as the source filed them. The calls are words filed in the database; no cut-off is given here.

Key:
Staphylococcus aureus [1] = test: Antibacterial activity against methicillin resistant-Staphylococcus aureus […] assessed as inhibition of bacterial growth incubated for 18 hrs by CLSI based microdilution method; format: functional
Staphylococcus aureus [2] = test: Antibacterial activity against Staphylococcus aureus ATCC 29213 assessed as inhibition of bacterial growth incubated for 18 hrs by CLSI based microdilution method; format: functional
[3] = tested on: Staphylococcus epidermidis; test: Antibacterial activity against Staphylococcus epidermidis ATCC 14990 assessed as inhibition of bacterial growth incubated for 24 hrs by Mueller-Hinton broth based assay; format: functional
Bacillus subtilis [4] = test: Antibacterial activity against Bacillus subtilis ATCC 6633 assessed as reduction in bacterial growth incubated for 24 hrs by Mueller-Hinton broth based assay; format: functional
Staphylococcus aureus [5] = test: Antimicrobial activity against Staphylococcus aureus ATCC 29213 assessed as reduction in bacterial growth incubated for 24 hrs by Mueller-Hinton broth based assay; format: functional
Enterococcus faecalis [6] = test: Antibacterial activity against Enterococcus faecalis ATCC 29212 assessed as reduction in bacterial growth incubated for 24 hrs by Mueller-Hinton broth based assay; format: functional
Staphylococcus aureus [7] = test: Bactericidal activity against Staphylococcus aureus ATCC 29213 assessed as reduction in bacterial growth at 8 microg/ml measured at 2 hrs by time-kill assay; format: functional, organism-based; details: dose 8.0 µg/ml
Staphylococcus aureus [8] = test: Bactericidal activity against Staphylococcus aureus ATCC 29213 assessed as reduction in bacterial growth at 8 times MIC measured at 8 hrs by time-kill assay; format: functional
Staphylococcus aureus [9] = test: Potency index, ratio of chloramphenicol MIC to test compound MIC for antimicrobial activity against Staphylococcus aureus ATCC 29213 assessed as reduction in bacterial growth incubated for 24 hrs by Mueller-Hinton broth based assay; format: functional
Staphylococcus aureus [10] = test: Bactericidal activity against Staphylococcus aureus ATCC 29213 assessed as reduction in bacterial growth at 0.5 to 8 times MIC measured at 24 hrs by time-kill assay; format: functional, organism-based
Cell membrane [11] = test: Induction of cell membrane disruption in Staphylococcus aureus ATCC 29213 assessed as appearance of round cell at 8 microg/ml incubated for 2 hrs by scanning electron microscopic analysis; format: subcellular; details: dose 8.0 µg/ml
Cell membrane [12] = test: Induction of cell membrane disruption in Staphylococcus aureus ATCC 29213 assessed as appearance of wrinkled cell at 8 microg/ml incubated for 2 hrs by scanning electron microscopic analysis; format: subcellular; details: dose 8.0 µg/ml
Cell membrane [13] = test: Disruption of membrane integrity in Staphylococcus aureus ATCC 29213 assessed as increase in green fluorescence at 8 microg/ml incubated for 2 hrs by nuc-green dye based fluorescence microscopic analysis; format: subcellular; details: dose 8.0 µg/ml
Cell membrane [14] = test: Induction of cell membrane disruption in Staphylococcus aureus ATCC 29213 assessed as increase in fluorescence intensity at 8 microg/ml incubated for 2 hrs by scanning electron microscopic analysis; format: subcellular; details: dose 8.0 µg/ml
Staphylococcus aureus [15] = test: Bactericidal activity against Staphylococcus aureus ATCC 29213 assessed as reduction in bacterial growth at 8 microg/ml measured immediately by time-kill assay; format: functional, organism-based; details: dose 8.0 µg/ml
Enterococcus faecalis [16] = test: Potency index, ratio of chloramphenicol MIC to test compound MIC for antibacterial activity against Enterococcus faecalis ATCC 29212 assessed as reduction in bacterial growth incubated for 24 hrs by Mueller-Hinton broth based assay; format: functional
Cell membrane [17] = test: Induction of cell membrane disruption in Staphylococcus aureus ATCC 29213 assessed as appearance of ruptured cell at 8 microg/ml incubated for 2 hrs by scanning electron microscopic analysis; format: subcellular; details: dose 8.0 µg/ml
Cell membrane [18] = test: Disruption of membrane integrity in Staphylococcus aureus ATCC 29213 assessed as increase in red fluorescence at 8 microg/ml incubated for 2 hrs by EthD-III dye based fluorescence microscopic analysis; format: subcellular; details: dose 8.0 µg/ml
[19] = tested on: Staphylococcus epidermidis; test: Potency index, ratio of chloramphenicol MIC to test compound MIC for antibacterial activity against Staphylococcus epidermidis ATCC 14990 assessed as inhibition of bacterial growth incubated for 24 hrs by Mueller-Hinton broth based assay; format: functional
Staphylococcus aureus [20] = test: Bactericidal activity against Staphylococcus aureus ATCC 29213 assessed as inhibition of bacterial growth measured at 8 hrs by time-kill assay; format: functional, organism-based
Cell membrane [21] = test: Induction of cell membrane disruption in Staphylococcus aureus ATCC 29213 assessed as appearance of uneven cell at 8 microg/ml incubated for 2 hrs by scanning electron microscopic analysis; format: subcellular; details: dose 8.0 µg/ml
Bacillus subtilis [22] = test: Potency index, ratio of chloramphenicol MIC to test compound MIC for antibacterial activity against Bacillus subtilis ATCC 6633 assessed as reduction in bacterial growth incubated for 24 hrs by Mueller-Hinton broth based assay; format: functional

Row | Structure (SMILES) | MIC (Staphylococcus aureus [1]) | MIC (Staphylococcus aureus [2]) | MIC [3] | MIC (Bacillus subtilis [4]) | MIC (Staphylococcus aureus [5]) | MIC (Enterococcus faecalis [6]) | Activity (Staphylococcus aureus [8]) | other results
1 | CC(C)=CCc1c(-c2ccc(O)c3c2OC(C)(C)C=C3)oc2cc(O)cc(O)c2c1=O [KUWANON A] | 8 µg/mL (≈ 19 µM) | 8 µg/mL (≈ 19 µM) | 2 µg/mL (≈ 4.76 µM) | 4 µg/mL (≈ 9.51 µM) | 4 µg/mL (≈ 9.51 µM) | 8 µg/mL (≈ 19 µM) | – | –
2 | CC1(C)S[C@@H]2[C@H](NC(=O)[C@H](N)c3ccccc3)C(=O)N2[C@H]1C(=O)O [AMPICILLIN] | – | – | 16 µg/mL (≈ 45.8 µM) | 8 µg/mL (≈ 22.9 µM) | 0.5 µg/mL (≈ 1.43 µM) | 0.5 µg/mL (≈ 1.43 µM) | 5 log10CFU/ml | Activity (Staphylococcus aureus [7]): inactive
3 | O=C(N[C@H](CO)[C@H](O)c1ccc([N+](=O)[O-])cc1)C(Cl)Cl [CHLORAMPHENICOL] | – | – | 8 µg/mL (≈ 24.8 µM) | 8 µg/mL (≈ 24.8 µM) | 16 µg/mL (≈ 49.5 µM) | 8 µg/mL (≈ 24.8 µM) | – | –
4 | CC(C)=CCc1c(-c2ccc3c(c2O)C=CC(C)(C)O3)oc2cc(O)cc(O)c2c1=O | 4 µg/mL (≈ 9.51 µM) | 4 µg/mL (≈ 9.51 µM) | 1 µg/mL (≈ 2.38 µM) | 1 µg/mL (≈ 2.38 µM) | 1 µg/mL (≈ 2.38 µM) | 1 µg/mL (≈ 2.38 µM) | 2 log10CFU/ml | Ratio (Staphylococcus aureus [9]): 8; Activity (Staphylococcus aureus [10]): inactive; Activity (Cell membrane [11]): Active; Activity (Cell membrane [12]): Active; Activity (Cell membrane [13]): Active; Activity (Cell membrane [14]): Active; Activity (Staphylococcus aureus [15]): Active; Ratio (Enterococcus faecalis [16]): 8; Activity (Cell membrane [17]): Active; Activity (Cell membrane [18]): Active; Ratio [19]: 8; Activity (Staphylococcus aureus [20]): Dose-Dependent Effect; Activity (Cell membrane [21]): Active; Ratio (Bacillus subtilis [22]): 8
